The source of these data is PMC5218480 (PLoS ONE, 2017).

The test system of the test is MV-4-11 cells. Description: Gene expression microarray analysis (Affymetrix PrimeView) and GSEA. The class given is cell-based, human. Particulars: ProbeSet 11753055_s_at; LIST B. Set-up: RFU PODN (11730768_x_at) / Fold change /veh PODN (11730768_x_at) / RFU LINC00158 (11744669_a_at) / Fold change /veh LINC00158 (11744669_a_at) / RFU DUSP10 (11751237_a_at) / Fold change /veh DUSP10 (11751237_a_at) / RFU ID3 (11757404_x_at) / Fold change /veh ID3 (11757404_x_at) / RFU PLEKHG5 (11737974_s_at) / Fold change /veh PLEKHG5 (11737974_s_at) / RFU LRRC4B (11730491_at) / Fold change /veh LRRC4B (11730491_at) / RFU GIMAP4 (11747438_a_at) / Fold change /veh GIMAP4 (11747438_a_at) / RFU KRT8 (11758183_x_at) / Fold change /veh KRT8 (11758183_x_at) / RFU CNN1 (11734310_a_at) / Fold change /veh CNN1 (11734310_a_at) / RFU VPS37D (11726825_at) / Fold change /veh VPS37D (11726825_at) / RFU C10orf10 (11716522_x_at) / Fold change /veh C10orf10 (11716522_x_at) / RFU KIR2DL2 /// KIR2DL4 /// KIR2DL5A /// KIR2DL5B /// KIR2DS1 /// KIR2DS2 /// KIR2DS3 /// KIR2DS4 /// KIR3DL3 /// KIR3DL3 /// KIR3DS1 (11738374_at) / Fold change /veh KIR2DL2 /// KIR2DL4 /// KIR2DL5A /// KIR2DL5B /// KIR2DS1 /// KIR2DS2 /// KIR2DS3 /// KIR2DS4 /// KIR3DL3 /// KIR3DL3 /// KIR3DS1 (11738374_at) / RFU C1QL1 (11718748_at) / Fold change /veh C1QL1 (11718748_at) / RFU TMPRSS4 (11747572_a_at) / Fold change /veh TMPRSS4 (11747572_a_at) / RFU HAMP (11756126_x_at) / Fold change /veh HAMP (11756126_x_at) / RFU RNFT2 (11725882_a_at) / Fold change /veh RNFT2 (11725882_a_at) / RFU NR4A2 (11747474_a_at) / Fold change /veh NR4A2 (11747474_a_at) / RFU ABCC12 (11746883_a_at) / Fold change /veh ABCC12 (11746883_a_at) / RFU TMEM136 (11760407_x_at) / Fold change /veh TMEM136 (11760407_x_at) / RFU CLDN22 /// WWC2 (11732394_at) / Fold change /veh CLDN22 /// WWC2 (11732394_at) / RFU HLA-DPB1 (11760878_x_at) / Fold change /veh HLA-DPB1 (11760878_x_at) / RFU SPINT1 (11716480_a_at) / Fold change /veh SPINT1 (11716480_a_at) / RFU GAP43 (11754022_s_at) / Fold change /veh GAP43 (11754022_s_at) / RFU A4GNT (11735810_at) / Fold change /veh A4GNT (11735810_at) / RFU PRB3 (11715151_x_at) / Fold change /veh PRB3 (11715151_x_at) / RFU TUBB4B (11761932_at) / Fold change /veh TUBB4B (11761932_at) / RFU CAPN14 (11732068_a_at) / Fold change /veh CAPN14 (11732068_a_at) / RFU TMCC2 (11721928_a_at) / Fold change /veh TMCC2 (11721928_a_at) / RFU IRGQ (11745062_a_at) / Fold change /veh IRGQ (11745062_a_at) / RFU FAM174B (11720279_a_at) / Fold change /veh FAM174B (11720279_a_at) / RFU TMPRSS4 (11748680_a_at) / Fold change /veh TMPRSS4 (11748680_a_at) / RFU FAM212B (11763350_a_at) / Fold change /veh FAM212B (11763350_a_at) / RFU PLEKHG5 (11743358_a_at) / Fold change /veh PLEKHG5 (11743358_a_at) / RFU ZSCAN30 (11745921_a_at) / Fold change /veh ZSCAN30 (11745921_a_at) / RFU CMKLR1 (11741424_a_at) / Fold change /veh CMKLR1 (11741424_a_at) / RFU LOC101060620 /// MAPK8IP1 (11723275_at) / Fold change /veh LOC101060620 /// MAPK8IP1 (11723275_at) / RFU SPTSSB (11747773_x_at) / Fold change /veh SPTSSB (11747773_x_at) / RFU PRSS12 (11739890_at) / Fold change /veh PRSS12 (11739890_at) / RFU BIN1 (11741810_x_at) / Fold change /veh BIN1 (11741810_x_at) / RFU WNT11 (11732464_a_at) / Fold change /veh WNT11 (11732464_a_at) / RFU C10orf10 (11716521_a_at) / Fold change /veh C10orf10 (11716521_a_at) / RFU C5orf56 (11738089_at) / Fold change /veh C5orf56 (11738089_at) / RFU CYB561 (11721691_x_at) / Fold change /veh CYB561 (11721691_x_at) / RFU ANKRD19P (11752326_a_at) / Fold change /veh ANKRD19P (11752326_a_at) / RFU OR2T12 /// OR2T33 /// OR2T8 (11738714_s_at) / Fold change /veh OR2T12 /// OR2T33 /// OR2T8 (11738714_s_at) / RFU VCAN (11748164_a_at) / Fold change /veh VCAN (11748164_a_at) / RFU JSRP1 (11732532_at) / Fold change /veh JSRP1 (11732532_at) / RFU KRTAP10-11 (11738290_x_at) / Fold change /veh KRTAP10-11 (11738290_x_at) / RFU MYO3A (11730013_a_at) / Fold change /veh MYO3A (11730013_a_at) / RFU EBF3 (11725865_a_at) / Fold change /veh EBF3 (11725865_a_at) / RFU CAMK2N1 (11719241_x_at) / Fold change /veh CAMK2N1 (11719241_x_at) / RFU C5orf56 (11738088_a_at) / Fold change /veh C5orf56 (11738088_a_at) / RFU OLFML3 (11715873_a_at) / Fold change /veh OLFML3 (11715873_a_at) / RFU LOC100653217 /// NTM (11731650_a_at) / Fold change /veh LOC100653217 /// NTM (11731650_a_at) / RFU MAPK11 (11762145_a_at) / Fold change /veh MAPK11 (11762145_a_at) / RFU FIZ1 (11724087_x_at) / Fold change /veh FIZ1 (11724087_x_at) / RFU OASL (11726364_x_at) / Fold change /veh OASL (11726364_x_at) / RFU SOX15 (11748057_x_at) / Fold change /veh SOX15 (11748057_x_at) / RFU CD79A (11719716_a_at) / Fold change /veh CD79A (11719716_a_at) / RFU HIST1H1D (11736915_at) / Fold change /veh HIST1H1D (11736915_at) / RFU CASKIN2 (11723855_a_at) / Fold change /veh CASKIN2 (11723855_a_at) / RFU LOC730098 (11760151_x_at) / Fold change /veh LOC730098 (11760151_x_at) / RFU OR4N2 (11742367_at) / Fold change /veh OR4N2 (11742367_at) / RFU PRRT2 (11749266_a_at) / Fold change /veh PRRT2 (11749266_a_at) / RFU SNX32 (11753110_a_at) / Fold change /veh SNX32 (11753110_a_at) / RFU CDHR5 (11726645_a_at) / Fold change /veh CDHR5 (11726645_a_at) / RFU RCAN1 (11760418_a_at) / Fold change /veh RCAN1 (11760418_a_at) / RFU FAM167A (11723789_a_at) / Fold change /veh FAM167A (11723789_a_at) / RFU FAM26E (11764081_at) / Fold change /veh FAM26E (11764081_at) / RFU ISYNA1 (11749810_s_at) / Fold change /veh ISYNA1 (11749810_s_at) / RFU ACY1 (11761880_at) / Fold change /veh ACY1 (11761880_at) / RFU 11764098_at / Fold change /veh 11764098_at / RFU SAMD14 (11745864_x_at) / Fold change /veh SAMD14 (11745864_x_at) / RFU NPB (11741838_a_at) / Fold change /veh NPB (11741838_a_at) / RFU TMPRSS6 (11731388_a_at) / Fold change /veh TMPRSS6 (11731388_a_at) / RFU KRTAP10-2 (11738614_at) / Fold change /veh KRTAP10-2 (11738614_at) / RFU ARHGAP8 /// PRR5-ARHGAP8 (11727945_x_at) / Fold change /veh ARHGAP8 /// PRR5-ARHGAP8 (11727945_x_at) / RFU KRTAP5-7 /// NADSYN1 (11734609_at) / Fold change /veh KRTAP5-7 /// NADSYN1 (11734609_at) / RFU RASL12 (11751679_a_at) / Fold change /veh RASL12 (11751679_a_at) / RFU CDKN2B (11736163_a_at) / Fold change /veh CDKN2B (11736163_a_at) / RFU PRF1 (11729649_at) / Fold change /veh PRF1 (11729649_at) / RFU, ZNF638 /// ZNF638-IT1 / Fold change vs veh, ZNF638 /// ZNF638-IT1 / RFU, PANK3 / Fold change vs veh, PANK3 / RFU, SH3YL1 / Fold change vs veh, SH3YL1 / RFU, ZEB2 / Fold change vs veh, ZEB2 / RFU, NRIP1 / Fold change vs veh, NRIP1 / RFU, PTTG1IP / Fold change vs veh, PTTG1IP / RFU, CAPN2 / Fold change vs veh, CAPN2 / RFU, MED14 / Fold change vs veh, MED14 / RFU, SNORA58 / Fold change vs veh, SNORA58 / RFU, C1orf63 / Fold change vs veh, C1orf63 / RFU, LRRFIP1 / Fold change vs veh, LRRFIP1 / RFU, NDUFAF7 / Fold change vs veh, NDUFAF7 / RFU, SLC12A2 / Fold change vs veh, SLC12A2 / RFU, IBTK / Fold change vs veh, IBTK / RFU, ESF1 / Fold change vs veh, ESF1 / Fold change vs veh, TMEM50B / RFU, TAOK1 / Fold change vs veh, TAOK1 / RFU, ACBD3 / Fold change vs veh, ACBD3 / RFU, TMA16 / Fold change vs veh, TMA16 / RFU, RWDD3 / Fold change vs veh, RWDD3 / RFU, BCAT1 / Fold change vs veh, BCAT1 / RFU, EDEM3 / Fold change vs veh, EDEM3 / RFU, TMEM33 / Fold change vs veh, TMEM33 / RFU, WDR75 / Fold change vs veh, WDR75 / RFU, AHCTF1 / Fold change vs veh, AHCTF1 / RFU, TFRC / Fold change vs veh, TFRC / RFU, ZDHHC17 / Fold change vs veh, ZDHHC17 / RFU, NOM1 / Fold change vs veh, NOM1 / RFU, ARL8B / Fold change vs veh, ARL8B / RFU, ZBTB11 / Fold change vs veh, ZBTB11 / RFU, TAMM41 / Fold change vs veh, TAMM41 / RFU, KIAA1704 /// LOC100996395 / Fold change vs veh, KIAA1704 /// LOC100996395 / RFU, ING1 / Fold change vs veh, ING1 / RFU, TRMT61B / Fold change vs veh, TRMT61B / RFU, FUBP3 / Fold change vs veh, FUBP3 / RFU, TP53 / Fold change vs veh, TP53 / RFU, TNKS2 / Fold change vs veh, TNKS2 / RFU, ZFP14 / Fold change vs veh, ZFP14 / RFU, ACTR2 / Fold change vs veh, ACTR2 / RFU, PPP3R1 / Fold change vs veh, PPP3R1 / RFU, PIK3R1 / Fold change vs veh, PIK3R1 / RFU, HNRNPA1 / Fold change vs veh, HNRNPA1 / RFU, RNF170 / Fold change vs veh, RNF170 / RFU, ZNF28 / Fold change vs veh, ZNF28 / RFU, RNGTT / Fold change vs veh, RNGTT / RFU, OGT / Fold change vs veh, OGT / RFU, BRD1 / Fold change vs veh, BRD1 / RFU, MARS / Fold change vs veh, MARS / RFU, ZNF655 / Fold change vs veh, ZNF655 / RFU, FAHD1 / Fold change vs veh, FAHD1 / RFU, BDP1 / Fold change vs veh, BDP1 / RFU, LRRCC1 / Fold change vs veh, LRRCC1 / RFU, ARID1A / Fold change vs veh, ARID1A / RFU, ZNF146 / Fold change vs veh, ZNF146 / RFU, ZNF330 / Fold change vs veh, ZNF330 / RFU, GPN3 / Fold change vs veh, GPN3 / RFU, C9orf123 / Fold change vs veh, C9orf123 / RFU, N4BP2L2 / Fold change vs veh, N4BP2L2 / RFU, ARFIP1 / Fold change vs veh, ARFIP1 / RFU, FAM179B / Fold change vs veh, FAM179B / RFU, BCL10 / Fold change vs veh, BCL10 / RFU, UHRF1BP1L / Fold change vs veh, UHRF1BP1L / RFU, BET1 / Fold change vs veh, BET1 / RFU, CNOT2 / Fold change vs veh, CNOT2 / RFU, ZNF268 / Fold change vs veh, ZNF268 / Fold change vs veh, ZNF507 / RFU, DGCR2 / Fold change vs veh, DGCR2 / RFU, WDSUB1 / Fold change vs veh, WDSUB1 / Fold change vs veh, HSP90B1 /// MIR3652 / RFU, ADSS / Fold change vs veh, ADSS / RFU, GK / Fold change vs veh, GK / RFU, ZNF148 / Fold change vs veh, ZNF148 / RFU, TAF9 / Fold change vs veh, TAF9 / RFU, SLC1A5 / Fold change vs veh, SLC1A5 / RFU, SLMO2 / Fold change vs veh, SLMO2 / RFU, ABCC4 / Fold change vs veh, ABCC4 / RFU, LOC101060439 /// RAP1B / Fold change vs veh, LOC101060439 /// RAP1B / RFU, RFX7 / Fold change vs veh, RFX7 / RFU, GTPBP10 / Fold change vs veh, GTPBP10 / RFU, CNEP1R1 / Fold change vs veh, CNEP1R1 / RFU, BIVM-ERCC5 /// ERCC5 / Fold change vs veh, BIVM-ERCC5 /// ERCC5 / RFU, ILF3 / Fold change vs veh, ILF3 / RFU 11762660_at / Fold change /veh 11762660_at / RFU VCAN (11757783_s_at) / Fold change /veh VCAN (11757783_s_at) / RFU DDX43 (11728927_at) / Fold change /veh DDX43 (11728927_at) / RFU KRT8 (11758188_x_at) / Fold change /veh KRT8 (11758188_x_at) / RFU NKD1 (11759106_at) / Fold change /veh NKD1 (11759106_at) / RFU SRD5A1 (11742802_a_at) / Fold change /veh SRD5A1 (11742802_a_at) / RFU TPSAB1 /// TPSB2 (11721975_s_at) / Fold change /veh TPSAB1 /// TPSB2 (11721975_s_at) / RFU GSTM3 (11746129_a_at) / Fold change /veh GSTM3 (11746129_a_at) / RFU IL23R (11737362_x_at) / Fold change /veh IL23R (11737362_x_at) / RFU TMEM51 (11727254_a_at) / Fold change /veh TMEM51 (11727254_a_at) / RFU PIWIL2 (11732686_x_at) / Fold change /veh PIWIL2 (11732686_x_at) / RFU ORM1 (11744905_x_at) / Fold change /veh ORM1 (11744905_x_at) / RFU CCDC152 (11743942_at) / Fold change /veh CCDC152 (11743942_at) / RFU ECM1 (11717891_a_at) / Fold change /veh ECM1 (11717891_a_at) / RFU IL23R (11748794_a_at) / Fold change /veh IL23R (11748794_a_at) / RFU TNFAIP8L3 (11732012_x_at) / Fold change /veh TNFAIP8L3 (11732012_x_at) / RFU MBOAT4 (11741988_at) / Fold change /veh MBOAT4 (11741988_at) / RFU 11764193_at / Fold change /veh 11764193_at / RFU TMEM53 (11763286_at) / Fold change /veh TMEM53 (11763286_at) / RFU MAGEB2 (11727129_at) / Fold change /veh MAGEB2 (11727129_at) / RFU TMEM200A (11744735_a_at) / Fold change /veh TMEM200A (11744735_a_at) / RFU CCDC152 (11751479_a_at) / Fold change /veh CCDC152 (11751479_a_at) / RFU FAM211A (11726209_a_at) / Fold change /veh FAM211A (11726209_a_at) / RFU RGS16 (11746705_a_at) / Fold change /veh RGS16 (11746705_a_at) / RFU VCAN (11755009_s_at) / Fold change /veh VCAN (11755009_s_at) / RFU RHOB (11743442_s_at) / Fold change /veh RHOB (11743442_s_at) / RFU RGS16 (11720943_a_at) / Fold change /veh RGS16 (11720943_a_at) / RFU RGS16 (11720944_at) / Fold change /veh RGS16 (11720944_at) / RFU, VPS4B / Fold change vs veh, VPS4B / RFU, CREB1 / Fold change vs veh, CREB1 / RFU, DNAJC13 / Fold change vs veh, DNAJC13 / RFU, GNAQ / Fold change vs veh, GNAQ / RFU, CDK5R1 / Fold change vs veh, CDK5R1 / RFU, ZRANB3 / Fold change vs veh, ZRANB3 / RFU, CUL4A / Fold change vs veh, CUL4A / RFU, CCNY / Fold change vs veh, CCNY / RFU, UFL1 / Fold change vs veh, UFL1 / RFU, COG3 / Fold change vs veh, COG3 / RFU, DIAPH2 / Fold change vs veh, DIAPH2 / RFU, SKA2 / Fold change vs veh, SKA2 / RFU, AFF3 / Fold change vs veh, AFF3 / RFU, LMF1 / Fold change vs veh, LMF1 / RFU, IPO11 / Fold change vs veh, IPO11 / RFU, DFFB / Fold change vs veh, DFFB / RFU, FOXP1 / Fold change vs veh, FOXP1 / RFU, CARD8 / Fold change vs veh, CARD8 / RFU, STRN3 / Fold change vs veh, STRN3 / RFU, ADK / Fold change vs veh, ADK / RFU, RASSF2 / Fold change vs veh, RASSF2 / RFU, WIPF1 / Fold change vs veh, WIPF1 / RFU, LARP1B / Fold change vs veh, LARP1B / RFU, RASA1 / Fold change vs veh, RASA1 / RFU, RB1 / Fold change vs veh, RB1 / RFU, PPFIA1 / Fold change vs veh, PPFIA1 / RFU, MAT2A / Fold change vs veh, MAT2A / RFU, CCT5 / Fold change vs veh, CCT5 / RFU, WDR92 / Fold change vs veh, WDR92 / RFU, CUX1 / Fold change vs veh, CUX1 / RFU, TTC7A / Fold change vs veh, TTC7A / RFU, TMEM135 / Fold change vs veh, TMEM135 / RFU, DEPTOR / Fold change vs veh, DEPTOR / RFU, CPM / Fold change vs veh, CPM / RFU, DNAJB6 / Fold change vs veh, DNAJB6 / RFU, CACNA2D3 / Fold change vs veh, CACNA2D3 / RFU, DTX4 / Fold change vs veh, DTX4 / RFU, TFCP2 / Fold change vs veh, TFCP2 / RFU, GMCL1 /// GMCL1P1 / Fold change vs veh, GMCL1 /// GMCL1P1 / RFU, AEBP2 / Fold change vs veh, AEBP2 / RFU, SNHG1 /// SNORD22 /// SNORD25 /// SNORD26 /// SNORD27 /// SNORD28 /// SNORD29 /// SNORD31 / Fold change vs veh, SNHG1 /// SNORD22 /// SNORD25 /// SNORD26 /// SNORD27 /// SNORD28 /// SNORD29 /// SNORD31 / Fold change (Aza/veh), C12orf56 (ProbeSet 11735607_a_at) / Fold change (ACY-1035/veh), C12orf56 (ProbeSet 11735607_a_at) / Fold change (Aza/veh), FGFR1OP (ProbeSet 11751329_s_at) / Fold change (ACY-1035/veh), FGFR1OP (ProbeSet 11751329_s_at) / Fold change (Aza/veh), VPS36 (ProbeSet 11739960_a_at) / Fold change (ACY-1035/veh), VPS36 (ProbeSet 11739960_a_at) / RFU SYPL1 (11715823_x_at) / Fold change /veh SYPL1 (11715823_x_at) / RFU IGFBP7 (11715501_s_at) / Fold change /veh IGFBP7 (11715501_s_at) / RFU REEP3 (11722064_at) / Fold change /veh REEP3 (11722064_at) / RFU IGLL1 (11728026_x_at) / Fold change /veh IGLL1 (11728026_x_at): dose or concentration left out as unconfirmed.

`Nc1ncn([C@@H]2O[C@H](CO)[C@@H](O)[C@H]2O)c(=O)n1` [azacitidine]: the “Fold change vs veh, LOC101060439 /// RAP1B” value is recorded as 0.86.
